Source: patent publication US20240350667A1, “Method of Enhancing Gene Therapy by Targeting cGAS-STING Pathway” (Spark Therapeutics, Inc., priority 2021, published 2024)

Tests used:
[1] = tested on: DNA-LNP-induced plasma cytokine/chemokine levels; test: In vivo RO3150 and GSK690693 inhibition of DNA-LNP-induced cytokine release; design: species or system BALB/c mice; settings: pre-treatment before DNA-LNP: dexamethasone 200 μg IP, GSK690693 312.5 μg IP (about one hour prior), RO3150 60 μg IV (right before); plasma at 4 hours; FIGS. 3A-3H
Procedure: BALB/c mice were pre-treated with dexamethasone, GSK690693, or RO3150 before DNA-LNP administration, and plasma cytokine levels were measured at 4 hours post DNA-LNP treatment. The DNA-LNP was made up of (1) DNA plasmid (nanoplasmid expression cassette encoding hFIX); and (2) GenVoy-ILM™ LNP. GenVoy-ILM™ LNP contains ionizable lipid at 50%; DSPC at 10%; cholesterol 37.5%; and stabilizer (PEG-Lipid) at 2.5% (see Roces et al., Pharmaceutics, 2020 12, 1095). Pretreatment was carried out using 200 μg dexamethasone administered intraperitoneally about one hour prior to DNA-LNP administration; using 312.5 μg GSK69063 administered intraperitoneally about one hour prior to DNA-LNP administration; or using 60 μg […] administered intravenously right before DNA-LNP administration.

[2] = tested on: DNA-LNP-induced plasma cytokines; test: In vivo LNP-encapsulated H-151 inhibition of DNA-LNP-induced cytokine release; design: species or system BALB/c mice; settings: H-151 encapsulated in 10 μg DNA-LNP, about 1-2 μg/mouse, 4 hours post injection
Procedure: BALB/c mice were injected with 10 μg DNA-LNP or 10 μg DNA-LNP encapsulating H-151. H-151 was provided at a dose of about 1-2 μg/mouse (about 0.04-0.08 mg/kg mouse) Cytokine levels in plasma were measured at 4 hours post injection. FIGS. 2A, 2B, 2C, and 2D illustrate the ability of H-151 encapsulated with the DNA-LNP to inhibit DNA-induced IFN-β (FIG. 2A), IFN-α (FIG. 2B), IFN-γ (FIG. 2C) and IL-6 (FIG. 2D). The DNA-LNP was as described in Example 1, above.

[3] = tested on: interferon regulatory factor (IRF) pathway in THP1-Dual cells; test: In vitro H-151 inhibition of DNA-LNP-induced IRF activation (Lucia luciferase in THP1-Dual cell supernatant); type: cell-based; settings: 25 ng DNA-LNP/well, 24 hours, FIG. 1
Procedure: THP1-Dual™ cells (InvivoGen) were seeded in 96-well plates at a density of 45,000 cells/well. After overnight incubation, the cells were treated with 25 ng DNA-LNP/well in the presence of 0, 0.2 or 2.1 ng of small molecule STING inhibitor H-151 (InvivoGen), where the H-151 was provided either a) co-encapsulated with the DNA in the LNPs, or b) provided in a soluble form. After 24 hours incubation, activation of the interferon regulatory factor (IRF) pathway (“fold IRF activity”) was determined by measuring luminescence signal (Lucia luciferase) in the cell culture supernatant. The DNA-LNP was made up of (1) DNA plasmid (nanoplasmid expression cassette encoding human coagulation Factor IX (hFIX)) and (2) Lipid 5 (further described in Sabnis et al. and I.A. infra.), 50%; C14-PEG2000, 1.5%; cholesterol, 38.5%; and DSPC, 10%.

Structure (SMILES)	cytokine/chemokine levels induced by DNA-LNP [1]	DNA-induced IFN-β in plasma ([2]; FIG. 2A)	DNA-induced IFN-α in plasma ([2]; FIG. 2B)	DNA-induced IFN-γ in plasma ([2]; FIG. 2C)	DNA-induced IL-6 in plasma ([2]; FIG. 2D)	effect on LNP-DNA-induced IRF activation (fold IRF activity), compared with soluble H-151 ([3]; H-151 co-encapsulated with the DNA in the LNP, 0.2 or 2.1 ng/well)	effect on LNP-DNA-induced IRF activation (fold IRF activity) ([3]; soluble H-151, 0.2 or 2.1 ng/well)
CCn1c(-c2nonc2N)nc2c(C#CC(C)(C)O)ncc(OC[C@H]3CCCNC3)c21 [GSK690693]	reduced most cytokine/chemokine levels except IL-6 and KC/GRO	–	–	–	–	–	–
CCc1ccc(NC(=O)Nc2c[nH]c3ccccc23)cc1 [H-151]	–	inhibit	inhibit	inhibit	inhibit	more pronounced	had an inhibitory effect
